Earlier results in patent US6632839B2, “Capsicum based disinfectant and sterilizant” (priority 1997, dated 2003).
Read-outs that look alike come from different tables or passages of the source.

Conditions: for Solubility in water: water / cold water

Solubility in alcohol, fats, oils: very soluble in fats, oils and alcohol
Solubility in alcohol, fats, oils (listed as capsaicin): soluble in alcohol
Solubility in water: sparingly soluble in water
Solubility in water (listed as capsaicin): insoluble in cold water
SMILES: COc1cc(CNC(=O)CCCC/C=C/C(C)C)ccc1O [Capsaicin, N-vanillyl-8-methyl-6-(E)-noneamide]
